# Tested on: Sebocytes SEBO662 (3D epithelium)
# Test: Lipid synthesis/accumulation in 3D model culture of Sebocytes (Oil-red-O staining, lipid droplet surface area)
# Type: cell-based, human
# Conditions: for lipid accumulation, % of the control / stimulation of lipid accumulation (in words): 14 days incubation, 3D Sebocytes; for lipid accumulation, % of the control: Oil-red-O lipid droplet surface area; for effect on lipid synthesis in the 3D Sebocytes model (conclusion, in words): overall conclusion, no concentration stated
# From the text: Since secretory cells (meibocytes) of meibomian glands, share similarities with that of the secretory cells (sebocytes) of sebaceous glands, as can be validated from their similar structure, similar function and their joint embryologic development (Knop 2011_IOVS) the effect of Thiol containing Lipids on lipid production can be evaluated in a 3D model culture of Sebocytes. See also: Barrault 2012, Immortalized sebocytes can spontaneously differentiate into a sebaceous-like phenotype when cultured as a 3D epithelium, Exp. Derm, 21:299-319
# The effect of different compounds on lipid synthesis was evaluated, in a 3D model culture of Sebocytes. Drug candidates were drugs containing S—H or disulfide: Selenium disulfide (SeS2 dispersed in CarboxymethylCellulose—CMC) as a positive control, Selenocysteine, Captopril, Disulfiram and lipids containing S—H or disulfide: Thioethanol, 12-Mercaptododecanoic acid. Since Sebocytes differentiation is associated with increased lipid synthesis and accumulation, evaluation of proliferation and differentiation was done by quantifying lipid accumulation in the 3D Sebocytes culture (human cell line—SEBO662). Lipid accumulation was evaluated by lipid staining with Oil red staining.
# Sebocytes SEBO662 were cultured into a three dimension (3D) epithelium and differentiated to a sebaceous-like phenotype. The Sebocytes were treated or not (control) with the test compounds and incubated for 14 days. All experiments were performed 3 times. After incubation, tissues were snap-frozen. Formaldehyde-fixed cryo sections were stained using an Oil-red-O solution and counterstained using haematoxylin. For each test condition, the sections were observed using a light microscope equipped with a camera. Five pictures were taken per replicate, making 15 values per treatment condition. The lipid content in each sample was quantified by calculation of the lipid droplet surface area. Quantitative comparison of all data points between lipid's droplet surface area of tested compounds versus control was performed
Structure (SMILES),"lipid accumulation, % of the control (0.1 μM) [%]","lipid accumulation, % of the control (1 μM) [%]","effect on lipid synthesis in the 3D Sebocytes model (conclusion, in words)","lipid accumulation, % of the control (10 μM) [%]","lipid accumulation, % of the control (100 μM) [%]",stimulation of lipid accumulation (in words) (1000 μM),"lipid accumulation, % of the control (0.01 μM) [%]",stimulation of lipid accumulation (in words) (10 μM)
O=C(O)CCCCCCCCCCCS [12-Mercaptododecanoic acid],385,349,significant stimulating effect,,,,,
C[C@H](CS)C(=O)N1CCC[C@H]1C(=O)O [Captopril],,240,significant stimulating effect,173,,,,
CCN(CC)C(=S)SSC(=S)N(CC)CC [Disulfiram],,,significant stimulating effect,,199,no stimulation effect,,
S=[Se]=S [Selenium disulfide],348,,significant stimulating effect,,,,282,
N[C@@H](C[SeH])C(=O)O [Selenocysteine],,296,significant stimulating effect,,,,,no stimulation effect
OCCS [Thioethanol],251,228,significant stimulating effect,,,,,

# From patent US10688122B2, “Thiol and disulfide-containing agents for increasing meibomian gland lipid secretion” (Azura Ophthalmics Ltd., priority 2015, dated 2020)
